Assay results: US20230078764A1 (Yumanity Therapeutics, Inc., priority 2019, published 2023)

How the values were obtained:
human SCD5 = target: T1, human SCD5 (Homo sapiens, UniProt Q86SK9); assay: Growth inhibition of yeast strain expressing human SCD5 as sole desaturase (OLE1 deleted), OD600 readout; type: cell-based; details: yeast strain expressing human SCD5 as sole desaturase; growth (OD600) after 40 h at 30° C.; read-out: SCD5 IC50
T1 construct: expressed in transfected cells; host or cells: yeast strain with OLE1 deleted, plasmid-borne human SCD5 (selected in SD-Ura)
T1 sequence (Q86SK9 1-330): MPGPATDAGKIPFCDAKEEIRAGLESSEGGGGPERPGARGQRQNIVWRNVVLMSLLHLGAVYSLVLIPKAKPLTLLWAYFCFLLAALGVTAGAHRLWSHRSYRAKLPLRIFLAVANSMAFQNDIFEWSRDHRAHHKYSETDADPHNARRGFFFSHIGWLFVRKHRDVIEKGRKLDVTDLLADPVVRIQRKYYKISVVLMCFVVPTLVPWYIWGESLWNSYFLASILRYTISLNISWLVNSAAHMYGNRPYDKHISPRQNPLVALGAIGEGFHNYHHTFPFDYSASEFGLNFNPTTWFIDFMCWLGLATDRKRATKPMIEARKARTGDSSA

human SCD1 = target: T2, human SCD1 (Homo sapiens, UniProt O00767); assay: Growth inhibition of yeast strain expressing human SCD1 as sole desaturase (OLE1 deleted), OD600 readout; type: cell-based; details: yeast strain expressing human SCD1 as sole desaturase; growth (OD600) after 40 h at 30° C.; read-out: SCD1 IC50
T2 construct: expressed in transfected cells; host or cells: yeast strain with OLE1 deleted, plasmid-borne human SCD1 (selected in SD-Ura)
T2 sequence (O00767 1-359): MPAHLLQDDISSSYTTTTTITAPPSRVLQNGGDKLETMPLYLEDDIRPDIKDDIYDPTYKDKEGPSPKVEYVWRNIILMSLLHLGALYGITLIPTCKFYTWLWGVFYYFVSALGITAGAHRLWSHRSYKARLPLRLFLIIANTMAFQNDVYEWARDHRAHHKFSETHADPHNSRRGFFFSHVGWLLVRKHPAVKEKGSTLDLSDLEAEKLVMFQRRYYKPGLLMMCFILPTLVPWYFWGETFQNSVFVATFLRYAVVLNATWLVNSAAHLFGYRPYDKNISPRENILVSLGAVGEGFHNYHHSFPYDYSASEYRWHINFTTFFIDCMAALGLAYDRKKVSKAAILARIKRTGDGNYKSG

SMILES | IC50 (human SCD5) [µM] | IC50 (human SCD1) [µM]
CN1N=C(C(=O)Nc2ncc(Cc3cncc(Cl)c3)s2)CCC1=O [Compound 231, N-(5-((5-chloropyridin-3-yl)methyl)thiazol-2-yl)-1-methyl-6-oxo-1,4,5,6-tetrahydropyridazine-3-carboxamide] | 3.17 | 8.93
Cn1nc(C(=O)Nc2nc(Cl)c(Cc3cccc(F)c3)s2)ccc1=O [Compound 232, N-(4-chloro-5-(3-fluorobenzyl)thiazol-2-yl)-1-methyl-6-oxo-1,6-dihydropyridazine-3-carboxamide] | 0.07 | 0.14
Cn1nc(C(=O)Nc2nc(C#N)c(Cc3cccc(F)c3)s2)ccc1=O [Compound 233, N-(4-cyano-5-(3-fluorobenzyl)thiazol-2-yl)-1-methyl-6-oxo-1,6-dihydropyridazine-3-carboxamide] | 0.87 | 1.63
CN1N=C(C(=O)Nc2ncc(Cc3ccc(F)cc3F)s2)CCC1=O [Compound 234, N-(5-(2,4-difluorobenzyl)thiazol-2-yl)-1-methyl-6-oxo-1,4,5,6-tetrahydropyridazine-3-carboxamide] | 1.44 | 6.3
CN1N=C(C(=O)Nc2ncc(Cc3cc(F)ccc3F)s2)CCC1=O [Compound 235, N-(5-(2,5-difluorobenzyl)thiazol-2-yl)-1-methyl-6-oxo-1,4,5,6-tetrahydropyridazine-3-carboxamide] | 1.77 | 1.88
Cn1nc(C(=O)Nc2ncc(Cc3cccc(Cl)c3)s2)ccc1=O [Compound 236, N-(5-(3-chlorobenzyl)thiazol-2-yl)-1-methyl-6-oxo-1,6-dihydropyridazine-3-carboxamide] | 0.01 | 0.01
CN1N=C(C(=O)Nc2ncc(N(C)c3cccc(F)c3)s2)CCC1=O [Compound 237, N-(5-((3-fluorophenyl)(methyl)amino)thiazol-2-yl)-1-methyl-6-oxo-1,4,5,6-tetrahydropyridazine-3-carboxamide] | 3.2 | 7.21
O=C(Nc1ccc(Cc2cccc(F)c2)nn1)c1ccc2nccn2n1 [Compound 238] | 3.96 | 4.06
Cc1cc(C(=O)Nc2ccc(Cc3cccc(F)c3)cn2)nc(C)n1 [Compound 239] | 0.01 | 0.25
Cn1ccc(C(=O)Nc2ccc(Cc3cccc(F)c3)cn2)cc1=O [Compound 240] | 0.31 | 4.39
Cc1ccc(C(=O)Nc2ccc(Cc3ccc(F)c(F)c3)cn2)nn1 [Compound 241] | 0.07 | 2.03
Cc1nccc(C(=O)Nc2ccc(Cc3cc(F)cc(F)c3)cn2)n1 [Compound 242] | 0.01 | 0.05
Cc1ccc(C(=O)Nc2ccc(Cc3cccc(Cl)c3)cn2)nn1 [Compound 243] | 0.01 | 0.06
Cc1nccc(C(=O)Nc2ccc(Cc3ccc(F)c(Cl)c3)cn2)n1 [Compound 244] | 0.01 | 0.01
CN1N=C(C(=O)Nc2ncc(Cc3cccc(F)c3)nn2)CCC1=O [Compound 245] | > 45 | > 45
CN1N=C(C(=O)Nc2ccc(CCc3cccc(Cl)c3)nn2)CCC1=O [Compound 246] | 1.59 | 6.45
CN1N=C(C(=O)Nc2ccc(Cc3ccc(Cl)s3)nn2)CCC1=O [Compound 247] | 2.02 | > 45
Cn1cc(C(=O)Nc2ccc(Cc3ccc(F)cc3)cn2)ccc1=O [Compound 248] | 0.01 | 0.2
O=C(Nc1ccc(Cc2cccc(Cl)c2)cn1)N1CCn2nccc2C1 [Compound 249] | 6.75 | > 45

SMILES | IC50 (human SCD5) [µM] | IC50 (human SCD1) [µM]
O=C(Nc1ccc(Cc2cccc(Cl)c2)cn1)N1CC2(COC2)C1 [Compound 250] | 9.75 | > 45
Cc1cc(C(=O)Nc2ccc(Cc3cccc(F)c3)cn2)nn(C)c1=O [Compound 251] | 0.15 | > 45
Cc1cnc(C(=O)Nc2ccc(Cc3cccc(F)c3)cn2)cn1 [Compound 252] | 0.13 | 0.69
Cn1nc(NC(=O)c2ccc(Cc3cccc(Cl)c3)nn2)ccc1=O [Compound 254] | 3.53 | > 45
O=C(Nc1ccc(Cc2cccc(Cl)c2)cn1)c1ccc(=O)n(C2CC2)n1 [Compound 256] | 0.04 | 0.75
CCCn1nc(C(=O)Nc2ccc(Cc3cccc(Cl)c3)nn2)ccc1=O [Compound 257] | 4.36 | > 45
O=C(Nc1ccc(Cc2cccc(F)c2)cn1)c1ccc(=O)n(C2CC2)c1 [Compound 258] | 0.18 | 3.86
Cn1cc(C(=O)Nc2ccc(COc3cccc(Cl)c3)nn2)ccc1=O [Compound 259] | 0.57 | 5.37
CN1N=C(C(=O)Nc2ccc(COc3cccc(F)c3)cn2)CCC1=O [Compound 260] | 0.17 | 4.58
CN1N=C(C(=O)Nc2ccc(COc3cccc(Cl)c3)cn2)CCC1=O [Compound 261] | 0.05 | 1.42
Cn1nc(C(=O)Nc2ccc(COc3cccc(Cl)c3)cn2)ccc1=O [Compound 262] | 0.26 | 3.98
CCn1cc(C(=O)Nc2ccc(COc3cccc(Cl)c3)cn2)ccc1=O [Compound 264] | 8.84 | > 45
CN1N=C(C(=O)Nc2ccc(COc3ccc(F)c(Cl)c3)cn2)CCC1=O [Compound 265] | 0.35 | 23.3
Cn1cc(C(=O)Nc2ccc(COc3ccc(F)c(Cl)c3)cn2)ccc1=O [Compound 266] | 0.4 | 1.85
Cn1cc(C(=O)Nc2ccc(Cc3cc(F)c(F)c(F)c3)nn2)ccc1=O [Compound 267] | 10.6 | > 45
CN1N=C(C(=O)Oc2ccc(NCc3cccc(Br)c3)nc2)CCC1=O [Compound 268] | 3.04 | > 45
CN1N=C(C(=O)Oc2ccc(NCc3cc(F)cc(C#N)c3)nc2)CCC1=O [Compound 269] | 0.03 | > 45
CN1N=C(C(=O)Nc2ccc(OCc3cc(F)cc(C#N)c3)cn2)CCC1=O [Compound 270] | 6.88 | > 45
CN1N=C(C(=O)Nc2ccc(Cc3cccs3)nn2)CCC1=O [Compound 271] | 14.8 | > 45

SMILES | IC50 (human SCD5) [µM] | IC50 (human SCD1) [µM]
O=C(Nc1ccc(Cc2cccc(F)c2)cn1)c1ccc(=O)n(C2COC2)c1 [Compound 272] | 13 | > 45
O=C(Nc1ccc(Cc2cccc(Cl)c2)cn1)c1ccc(=O)n(C2COC2)c1 [Compound 273] | 3.25 | > 45
CN1N=C(C(=O)Nc2ccc(Cc3cncc(Cl)c3)cn2)CCC1=O [Compound 274] | 0.76 | > 45
Cn1nc(C(=O)Nc2ccc(Cc3cncc(Cl)c3)cn2)ccc1=O [Compound 275] | 3.02 | > 45
Cn1cc(C(=O)Nc2ccc(Cc3cncc(Cl)c3)cn2)ccc1=O [Compound 276] | 0.95 | > 45
CN1N=C(C(=O)Nc2ccc(Cc3cncc(C(F)(F)F)c3)cn2)CCC1=O [Compound 277] | 13.4 | > 45
Cn1nc(C(=O)Nc2ccc(Cc3cc(C(F)(F)F)ccn3)cn2)ccc1=O [Compound 278] | 2.03 | 39.9
Cn1cc(C(=O)Nc2ccc(Cc3cc(C(F)(F)F)ccn3)cn2)ccc1=O [Compound 279] | 1.96 | 21.5
Cn1nc(C(=O)Nc2ccc(Cc3cccc(F)c3)cn2)cc(Br)c1=O [Compound 280] | 0.02 | 0.13
CN1N=C(C(=O)Nc2ccc(NCc3cccc(F)c3)cn2)CCC1=O [Compound 281] | 2.75 | > 45
COc1cc(Cl)cc(Cc2ccc(NC(=O)c3ccc(=O)n(C)n3)nc2)c1 [Compound 282] | 0.02 | 0.21
Cn1c(C(=O)Nc2ccc(Cc3cccc(F)c3)cn2)coc1=O [Compound 283] | 0.27 | 2.96
CN(C)C(=O)c1ccc(NC(=O)c2ccc(Cc3cccc(Cl)c3)cn2)cc1 [Compound 284] | 4.52 | > 45
O=C(Nc1ccc(Cc2cccc(F)c2)cn1)c1ccn(C2CC2)n1 [Compound 285] | 1.43 | 9.41
Cn1nc(C(=O)Nc2ccc(NCc3cccc(Cl)c3)cn2)ccc1=O [Compound 286] | 0.24 | 4
O=C(Nc1ccc(Cc2cccc(F)c2)cn1)c1ccc(=O)n(C(F)F)c1 [Compound 287] | 0.14 | 0.86
CN1N=C(C(=O)Nc2ccc(/C=C/c3cccc(Cl)c3)nn2)CCC1=O [Compound 288] | 2.52 | > 45
CNCc1ccc(C(=O)Nc2ccc(Cc3cccc(Cl)c3)cn2)cn1 [Compound 289] | 9.2 | > 45
